Source: ChEMBL document CHEMBL6109145, “Indolizine Derivatives Inhibit TRPM2 and Protect against Ischemic Brain Injury with an Extended Treatment Window” (J Med Chem, 2025)

What was measured:
[1] = biological target: Transient receptor potential cation channel subfamily M member 2 (Homo sapiens, UniProt O94759); assay: Inhibition of TRPM2 channel (unknown origin) in doxycycline-inducible human HEK-293T cells assessed as inhibition of ADPR activated current by measuring inhibition rate at +80 mV to -80 mV at 1 uM by whole-cell patch clamp electrophysiology relative to control; format: cell-based
[2] = Cmax in mouse at 1 mg/kg, iv administered single dose; format: ADME, organism-based; conditions: in vivo
[3] = AUC (0 to t) in mouse at 20 mg/kg, IG administered single dose; format: ADME, organism-based; conditions: in vivo, po
[4] = Half life in mouse at 20 mg/kg, IG administered single dose; format: ADME, organism-based; conditions: in vivo, po
[5] = Cmax in mouse at 100 mg/kg, IG administered single dose; format: ADME, organism-based; conditions: in vivo, po
Mus musculus [6] = assay: Neuroprotective effect against transient middle cerebral artery occlusion (tMCAO) mouse model assessed as infarct volume in TTC-stained brain slices at 3 mg/kg, iv administered 24 hrs after reperfusion (reference value: 4.3 +/- 0.3%); format: functional
[7] = Half life in mouse at 100 mg/kg, IG administered single dose; format: ADME, organism-based; conditions: in vivo, po
Mus musculus [8] = assay: Neuroprotective effect against transient middle cerebral artery occlusion (tMCAO) (60 mins ischemia/24 hrs reperfusion) mouse model assessed as infarct volume in TTC-stained brain slices at 3 mg/kg, iv once daily for 7 days (reference value: 39.6 +/- 1.3%); format: functional; conditions: 1 h
[9] = Oral bioavailability in mouse at 100 mg/kg, IG administered single dose; format: ADME, organism-based; conditions: in vivo
[10] = Oral bioavailability in mouse at 20 mg/kg, IG administered single dose; format: ADME, organism-based; conditions: in vivo
[11] = Cmax in mouse at 20 mg/kg, IG administered single dose; format: ADME, organism-based; conditions: in vivo, po
[12] = Tmax in mouse at 1 mg/kg, iv administered single dose; format: ADME, organism-based; conditions: in vivo
[13] = MRT in mouse at 100 mg/kg, IG administered single dose; format: ADME, organism-based; conditions: in vivo, po
Mus musculus [14] = assay: Neuroprotective effect against transient middle cerebral artery occlusion (tMCAO) mouse model assessed as infarct volume in TTC-stained brain slices at 1 mg/kg, iv administered 3 hrs after reperfusion (reference value: 59 +/- 2.4%); format: functional
[15] = AUC (0 to infinity) in mouse at 100 mg/kg, IG administered single dose; format: ADME, organism-based; conditions: in vivo, po
[16] = MRT in mouse at 1 mg/kg, iv administered single dose; format: ADME, organism-based; conditions: in vivo
[17] = Tmax in mouse at 20 mg/kg, IG administered single dose; format: ADME, organism-based; conditions: in vivo, po
Mus musculus [18] = assay: Neuroprotective effect against transient middle cerebral artery occlusion (tMCAO) mouse model assessed as infarct volume in TTC-stained brain slices at 3 mg/kg, iv administered 3 hrs after reperfusion (reference value: 59 +/- 2.4%); format: functional
[19] = AUC (0 to t) in mouse at 100 mg/kg, IG administered single dose; format: ADME, organism-based; conditions: in vivo, po
[20] = AUC (0 to infinitive) in mouse at 20 mg/kg, IG administered single dose; format: ADME, organism-based; conditions: in vivo, po
[21] = MRT in mouse at 20 mg/kg, IG administered single dose; format: ADME, organism-based; conditions: in vivo, po
[22] = Half life in mouse at 1 mg/kg, iv administered single dose; format: ADME, organism-based; conditions: in vivo
[23] = AUC (0 to t) in mouse at 1 mg/kg, iv administered single dose; format: ADME, organism-based; conditions: in vivo
Mus musculus [24] = assay: Neuroprotective effect against transient middle cerebral artery occlusion (tMCAO) mouse model assessed as infarct volume in TTC-stained brain slices at 0.3 mg/kg, iv administered 3 hrs after reperfusion (reference value: 59 +/- 2.4%); format: functional
[25] = Tmax in mouse at 100 mg/kg, IG administered single dose; format: ADME, organism-based; conditions: in vivo, po
[26] = AUC (0 to infinitive) in mouse at 1 mg/kg, iv administered single dose; format: ADME, organism-based; conditions: in vivo
[27] = Clearance in mouse at 1 mg/kg, iv administered single dose; format: ADME, organism-based; conditions: in vivo
Mus musculus [28] = assay: Neuroprotective effect against transient middle cerebral artery occlusion (tMCAO) mouse model assessed as infarct volume in TTC-stained brain slices at 1 mg/kg, iv administered 24 hrs after reperfusion (reference value: 4.3 +/- 0.3%); format: functional

Sequence of Transient receptor potential cation channel subfamily M member 2 (O94759 whole entry): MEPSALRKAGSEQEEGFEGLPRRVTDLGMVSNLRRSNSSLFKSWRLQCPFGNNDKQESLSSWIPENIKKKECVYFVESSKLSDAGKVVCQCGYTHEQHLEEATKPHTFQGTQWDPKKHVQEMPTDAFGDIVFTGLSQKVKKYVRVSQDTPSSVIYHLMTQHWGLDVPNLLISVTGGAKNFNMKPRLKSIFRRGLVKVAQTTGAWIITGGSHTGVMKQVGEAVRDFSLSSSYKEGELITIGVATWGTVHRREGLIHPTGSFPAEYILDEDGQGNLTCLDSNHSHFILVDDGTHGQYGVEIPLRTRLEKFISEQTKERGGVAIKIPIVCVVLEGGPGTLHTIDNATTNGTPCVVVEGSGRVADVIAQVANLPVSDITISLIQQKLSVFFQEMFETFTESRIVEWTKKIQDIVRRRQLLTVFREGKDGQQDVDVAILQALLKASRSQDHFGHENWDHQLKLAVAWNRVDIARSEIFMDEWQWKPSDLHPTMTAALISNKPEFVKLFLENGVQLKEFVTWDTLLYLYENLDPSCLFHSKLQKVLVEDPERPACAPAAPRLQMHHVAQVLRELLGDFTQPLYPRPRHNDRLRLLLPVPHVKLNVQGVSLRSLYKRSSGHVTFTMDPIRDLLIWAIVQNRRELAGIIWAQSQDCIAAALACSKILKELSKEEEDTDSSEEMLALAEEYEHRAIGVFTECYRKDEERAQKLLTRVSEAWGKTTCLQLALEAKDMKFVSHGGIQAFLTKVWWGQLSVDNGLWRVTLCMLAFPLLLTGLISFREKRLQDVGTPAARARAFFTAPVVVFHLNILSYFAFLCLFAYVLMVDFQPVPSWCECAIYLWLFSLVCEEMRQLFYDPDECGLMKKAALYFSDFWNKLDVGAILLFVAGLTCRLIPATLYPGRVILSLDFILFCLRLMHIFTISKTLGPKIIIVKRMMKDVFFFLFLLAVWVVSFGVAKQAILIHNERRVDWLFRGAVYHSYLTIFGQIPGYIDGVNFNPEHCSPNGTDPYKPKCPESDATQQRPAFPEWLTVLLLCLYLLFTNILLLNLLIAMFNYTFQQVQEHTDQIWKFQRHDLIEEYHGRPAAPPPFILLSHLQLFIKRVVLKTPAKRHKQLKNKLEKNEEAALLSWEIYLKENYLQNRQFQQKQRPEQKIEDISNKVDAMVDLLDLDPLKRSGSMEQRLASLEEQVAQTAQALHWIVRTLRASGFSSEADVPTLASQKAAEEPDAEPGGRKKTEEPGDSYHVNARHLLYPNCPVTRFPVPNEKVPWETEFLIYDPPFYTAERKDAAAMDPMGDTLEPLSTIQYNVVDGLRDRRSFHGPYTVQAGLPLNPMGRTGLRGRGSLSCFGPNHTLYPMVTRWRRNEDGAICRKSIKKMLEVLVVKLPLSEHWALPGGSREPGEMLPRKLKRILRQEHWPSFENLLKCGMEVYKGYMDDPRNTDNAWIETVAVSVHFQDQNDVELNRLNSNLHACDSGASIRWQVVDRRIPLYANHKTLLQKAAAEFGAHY

Q: With `O=C(c1ccccc1)c1cc(C(=O)N2CCOCC2)cc2cccn12` as the compound, how does the IC50 [1] read?
A: 2890 nM

Q: Which Cmax [2] does the source give for `CCN(CC)C(=O)c1cc(C(=O)c2ccccc2)n2cccc2c1` here?
A: 260 ng/mL

Q: And the AUC(0-t) [3]?
A: 2200 ng·h/mL

Q: And the half-life [4]?
A: 2.62 h

Q: What about the Cmax [5] of the same compound?
A: 1520 ng/mL

Q: And the Activity (Mus musculus [6])?
A: 2.3%

Q: What about the half-life [7] of the same compound?
A: 2.83 h

Q: What about the Activity (Mus musculus [8]) of the same compound?
A: 23.4%

Q: What about the bioavailability [9] of the same compound?
A: 48.2%

Q: And the bioavailability [10]?
A: 50%

Q: What about the Cmax [11] of the same compound?
A: 330 ng/mL

Q: What about the Tmax [12] of the same compound?
A: 5.4 min

Q: What about the MRT [13] of the same compound?
A: 3.16 h

Q: And the Activity (Mus musculus [14])?
A: 39.4%

Q: What about the AUC [15] of the same compound?
A: 11740 ng·h/mL

Q: What about the MRT [16] of the same compound?
A: 1.24 h

Q: What about the Tmax [17] of the same compound?
A: 0.83 h

Q: And the Activity (Mus musculus [18])?
A: 30.7%

Q: What about the AUC(0-t) [19] of the same compound?
A: 10600 ng·h/mL

Q: What about the AUC [20] of the same compound?
A: 2410 ng·h/mL

Q: And the MRT [21]?
A: 2.65 h

Q: What about the half-life [22] of the same compound?
A: 0.86 h

Q: What about the AUC(0-t) [23] of the same compound?
A: 220 ng·h/mL

Q: What about the IC50 [1] of the same compound?
A: 2290 nM

Q: And the Activity (Mus musculus [24])?
A: 51.5%

Q: What about the Tmax [25] of the same compound?
A: 1.1 h

Q: What about the AUC(0-inf) [26] of the same compound?
A: 220 ng·h/mL

Q: And the clearance [27]?
A: 75.8 mL/min/kg

Q: Which IC50 [1] does the source give for `O=C(c1ccccc1)c1cc(C(=O)N2CCCC2)cc2cccn12` here?
A: 3080 nM

Q: For `O=C(c1ccccc1)c1cc(C(=O)N2CCCCC2)cc2cccn12`, which IC50 [1] is on record?
A: 2800 nM

Q: Which Activity (Mus musculus [6]) does the source give for `CC1=NN(c2ccccc2)C(=O)C1` [EDARAVONE] here?
A: 3%

Q: What about the Activity (Mus musculus [8]) of the same compound?
A: 38.9%

Q: And the Activity (Mus musculus [28])?
A: 2.8%

Q: And the Activity (Mus musculus [18])?
A: 40.6%
